The numbers were not newly measured in PubChem BioAssay AID493017 (Abbott Labs, 1994), which cites them from elsewhere.

The IC50 is the concentration at which inhibition is half-maximal.

In this data set the target is Platelet-derived growth factor receptor alpha (Homo sapiens) (UniProt P16234). The data set can be described thus: PubChem AID 493017. The note with it: WOMBAT literature affinities, multiple human targets; PDGFR; gene PDGFRA; NCBI gene 5156.
Sequence of Platelet-derived growth factor receptor alpha (Homo sapiens) (P16234 whole entry, looked up): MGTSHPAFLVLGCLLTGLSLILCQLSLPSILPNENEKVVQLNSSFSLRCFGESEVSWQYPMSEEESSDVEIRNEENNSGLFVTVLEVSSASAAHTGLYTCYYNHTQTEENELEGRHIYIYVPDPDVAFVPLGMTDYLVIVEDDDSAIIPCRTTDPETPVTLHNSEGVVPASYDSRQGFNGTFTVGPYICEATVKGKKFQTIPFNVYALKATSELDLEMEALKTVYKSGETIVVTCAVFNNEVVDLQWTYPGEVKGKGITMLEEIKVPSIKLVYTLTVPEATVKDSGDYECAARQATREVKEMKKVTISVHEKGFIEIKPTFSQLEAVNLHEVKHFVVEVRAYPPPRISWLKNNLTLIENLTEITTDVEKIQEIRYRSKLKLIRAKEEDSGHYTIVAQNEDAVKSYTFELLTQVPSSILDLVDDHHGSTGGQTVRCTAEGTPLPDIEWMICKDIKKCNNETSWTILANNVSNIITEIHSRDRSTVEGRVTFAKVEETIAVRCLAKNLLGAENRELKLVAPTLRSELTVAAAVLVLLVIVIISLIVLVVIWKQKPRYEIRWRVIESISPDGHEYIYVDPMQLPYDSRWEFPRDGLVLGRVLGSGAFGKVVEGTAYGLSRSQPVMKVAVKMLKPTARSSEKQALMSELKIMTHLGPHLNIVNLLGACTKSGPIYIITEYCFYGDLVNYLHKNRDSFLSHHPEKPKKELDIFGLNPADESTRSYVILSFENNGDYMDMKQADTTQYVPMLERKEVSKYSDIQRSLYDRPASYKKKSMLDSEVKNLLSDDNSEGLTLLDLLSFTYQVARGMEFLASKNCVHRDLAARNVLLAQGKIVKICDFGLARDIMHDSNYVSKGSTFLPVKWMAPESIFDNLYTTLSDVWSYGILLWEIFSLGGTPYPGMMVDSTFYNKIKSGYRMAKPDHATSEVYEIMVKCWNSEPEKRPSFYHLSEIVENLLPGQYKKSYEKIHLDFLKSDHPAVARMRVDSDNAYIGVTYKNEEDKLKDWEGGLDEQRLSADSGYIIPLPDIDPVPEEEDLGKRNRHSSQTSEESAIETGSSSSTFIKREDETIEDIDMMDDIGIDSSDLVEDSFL
`COc1cc2cc(-c3ccc(C(=O)O)cc3)cnc2cc1OC`: the IC50 was 1.87 µM.

For the molecule `COc1cc2cc(-c3c[nH]c4ccccc34)cnc2cc1OC`, the IC50 was 0.245 µM.

Turning to `COc1cc2cc(NCc3ccccc3)cnc2cc1OC`, the 50% inhibitory concentration (IC50) is 0.04 µM.

For the molecule `Fc1cc2cc(-c3ccsc3)cnc2cc1F`, the IC50 is 2.83 µM.

Turning to `Oc1cc2cc(-c3cccnc3)cnc2cc1O`, the IC50 is 7.75 µM.

Turning to `COc1cc2cccnc2cc1OC`, the IC50 is 24.5 µM.

On to `COc1cc2cc(OCc3ccccc3)cnc2cc1OC`, for which the IC50 is 0.0529 µM.

As for `COc1ccc(-c2cnc3cc(OC)c(OC)cc3c2)cc1C`, the IC50 was 0.2 µM.

On to `COc1ccc(-c2cnc3cc(OC)c(OC)cc3c2)cc1`, for which the IC50 was 0.00387 µM.

As for `COc1ccc(CCc2cnc3cc(OC)c(OC)cc3c2)cc1`, the concentration for half-maximal inhibition (IC50) is 0.4 µM.

Turning to `COc1cccc(-c2cnc3cc(OC)c(OC)cc3c2)c1`, the IC50 is 1.41 µM.

`COc1cc2cc(C3=CCCC3)cnc2cc1OC`: the IC50 is 0.0283 µM.

Take `COc1cc2cc(-c3ccccc3)cnc2cc1OC`: the IC50 is 0.102 µM.

For `COc1cc2cc(C#Cc3ccccc3)cnc2cc1OC`, the 50% inhibitory concentration (IC50) was 0.0316 µM.

With `COc1ccc(C=Cc2cnc3cc(OC)c(OC)cc3c2)cc1`, the IC50 was 0.0548 µM.

For `COc1ccc(-c2cnc3cc(OC)c(OC)cc3c2)s1`, the IC50 was 0.158 µM.

As for `COc1cc2cc(-c3ccc(O)cc3)cnc2cc1OC`, the IC50 was 0.0245 µM.

Turning to `COc1cc2cc(-c3ccc(Cl)c(Cl)c3)cnc2cc1OC`, the IC50 was 2.65 µM.

Regarding `COc1cc2cc(C3CCCC3)cnc2cc1OC`, the half-maximal inhibitory concentration (IC50) was 0.224 µM.

As to `COc1cc2cc(-c3ccc(=O)[nH]c3)cnc2cc1OC`, the IC50 is 0.0212 µM.

Turning to `COc1cc2cc(CCC3CCCCC3)cnc2cc1OC`, the IC50 is 0.387 µM.

As to `COc1cc2cc(C#CC3CCCCC3)cnc2cc1OC`, the IC50 is 0.548 µM.

Consider `c1ccc2ncc(-c3c[nH]c4ccccc34)cc2c1`, for which the IC50 is 4 µM.
